Target: T1, EGFR (Homo sapiens, UniProt P00533)
T1 construct: The intracellular portion of EGFR started at nucleotide 2189 (corresponding to amino acid 667) and ended at the termination codon; made in house; host or cells: Sf9 insect cells (baculovirus)
Experiment: EGFR Kinase Assay
Format: biochemical
Conditions: for IC50: GST-EGFR, ATP 5 μM
Description: The EGFR kinase used was a fusion of Glutathione-S-Transferase (GST) and a PCR amplified intracellular portion of EGFR (Accession Number NM_005228). The intracellular portion of EGFR started at nucleotide 2189 (corresponding to amino acid 667) and ended at the termination codon. The portion was PCR amplified with primers that added the lambda attB sequences to each end, recombined into an entry vector, then into a GST destination vector (as described in Gateway Technologies Manual by Invitrogen Corporation, Carlsbad, Calif.).
The destination vector was recombined in the DH10BAC strain of bacteria to produce a bacmid. The bacmid was transfected into Sf 9 cells and the supernatant containing the baculovirus was collected. The GSTEGFR protein was purified using large cultures of Sf 9 cells infected with stock virus. After an appropriate period of time, the cells were collected and lysed. The GSTEGFR was then purified from the lysate on Glutathione-Sepharose columns (as described by Amersham Biosciences, Buckinghamshire, United Kingdom).
The EGFR substrate was prepared by biotinylating polyGluTyr (128 mg) (Sigma, St. Louis, Mo.) in a 1×PBS buffer incubated together with a 12-fold molar excess of Sulfo-NHS-LC-Biotin on ice for at least 2 hrs. The free biotin was separated from the biotinylated polyGluTyr on a gel filtration column.
A mixture of a 10× kinase buffer (500 mM Tris at pH 8.0, 100 mM Magnesium Chloride and 1 mM Sodium Vanadate), DTT (1 mM final from 500 mM stock), ATP (5 μM final from 10 mM stock), biotinylated polyGluTyr (10 μg/μL stock), γ-^33P ATP (10 μCl/μL stock) and water was added to each well (for a total of 90 μL/well) of a Streptavidin Flashplate (Perkin Elmer, Wellesley, Mass.).
Test compound in 100% DMSO (2 μL) was added to the appropriate wells. Diluted GSTEGFR (1:300 dilution in 50 mM Tris at pH 8.0 and 0.1% bovine serum albumin) (10 μL) was added to the wells to initiate the reactions.
The plates were incubated at 30° C. for 1 hr with shaking. The reacted contents were removed and the plates were sequentially washed three times with a 1×PBS stop buffer (300 μL without Magnesium and Calcium) and 100 mM EDTA. After the final wash, the same stop buffer (200 μL) was added to the wells. The plates were then sealed and read on the TopCount scintillation counter.
Test compounds were assayed in triplicate at 16 concentrations at half-log dilutions starting at 200 uM. A maximum and minimum signal for the assay was determined on each plate. The percent inhibition of a test compound was calculated according to the formula: […]
For a series of test concentrations, the IC50 was derived by graphing percent inhibition against the log of the concentrations tested for a given compound. For those compounds without an IC50, the inhibition values in percent are shown at a test concentration of 2 μM. For compounds with multiple values, each value represents a separate assay result.

T1 sequence (P00533 669-1210 limits assumed): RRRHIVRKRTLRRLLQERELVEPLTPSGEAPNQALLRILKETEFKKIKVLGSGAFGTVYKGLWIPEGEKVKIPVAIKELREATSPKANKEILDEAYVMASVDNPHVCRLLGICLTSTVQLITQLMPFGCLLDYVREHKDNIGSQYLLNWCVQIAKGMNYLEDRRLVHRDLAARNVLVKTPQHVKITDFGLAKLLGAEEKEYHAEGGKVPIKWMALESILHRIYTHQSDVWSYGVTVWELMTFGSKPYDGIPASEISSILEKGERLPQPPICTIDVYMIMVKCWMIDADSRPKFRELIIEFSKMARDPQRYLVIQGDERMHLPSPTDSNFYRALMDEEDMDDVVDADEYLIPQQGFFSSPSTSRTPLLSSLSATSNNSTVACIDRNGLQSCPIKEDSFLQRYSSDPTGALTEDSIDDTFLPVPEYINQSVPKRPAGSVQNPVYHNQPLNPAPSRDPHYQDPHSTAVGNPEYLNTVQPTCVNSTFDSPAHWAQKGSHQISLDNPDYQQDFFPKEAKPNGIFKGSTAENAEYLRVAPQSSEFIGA

SMILES	IC50	inhibition at 2 µM (test concentration of 2 μM, compounds without an IC50, read-out: EGFR inhibition in percent)
COc1cc(NC(=O)c2sc3ncnc4c3c2NC(=O)N4c2ccc(F)c(Cl)c2)ccc1OCCCN1CCCCC1 [Cpd 21, 5-(3-chloro-4-fluoro-phenyl)-4-oxo-4,5-dihydro-3H-1-thia-3,5,6,8-tetraaza-acenaphthylene-2-carboxylic acid [3-methoxy-4-(3-piperidin-1-yl-propoxy)-phenyl]-amide]	27 nM	–
COc1ccc(NC(=O)c2sc3ncnc4c3c2NC(=O)N4c2ccc(F)c(Cl)c2)cc1OC [Cpd 2, 5-(3-chloro-4-fluoro-phenyl)-4-oxo-4,5-dihydro-3H-1-thia-3,5,6,8-tetraaza-acenaphthylene-2-carboxylic acid (3,4-dimethoxy-phenyl)-amide]	37 nM	–
COc1ccc(C(=O)Nc2sc3ncnc4c3c2NC(=O)N4c2ccc(F)c(Cl)c2)cc1OC [Cpd 159, N-[5-(3-chloro-4-fluoro-phenyl)-4-oxo-4,5-dihydro-3H-1-thia-3,5,6,8-tetraaza-acenaphthylen-2-yl]-3,4-dimethoxy-benzamide]	1040 nM	–
O=C1Nc2c([N+](=O)[O-])sc3ncnc(c23)N1c1ccc(F)c(Cl)c1 [Cpd 156, 5-(3-chloro-4-fluoro-phenyl)-2-nitro-3H,5H-1-thia-3,5,6,8-tetraaza-acenaphthylen-4-one]	1370 nM	–
O=C(Nc1cccnc1)c1sc2ncnc3c2c1NC(=O)N3c1ccc(F)c(Cl)c1 [Cpd 5, 5-(3-chloro-4-fluoro-phenyl)-4-oxo-4,5-dihydro-3H-1-thia-3,5,6,8-tetraaza-acenaphthylene-2-carboxylic acid pyridin-3-ylamide]	69 nM	–
O=C(Nc1ccc(NCCCN2CCOCC2)nc1)c1sc2ncnc3c2c1NC(=O)N3c1ccc(F)c(Cl)c1 [Cpd 6, 5-(3-chloro-4-fluoro-phenyl)-4-oxo-4,5-dihydro-3H-1-thia-3,5,6,8-tetraaza-acenaphthylene-2-carboxylic acid [6-(3-morpholin-4-yl-propylamino)-pyridin-3-yl]-amide]	83 nM	–
COc1cc(NC(=O)c2sc3ncnc4c3c2NC(=O)N4c2ccc(F)c(Cl)c2)ccc1O [Cpd 19, 5-(3-chloro-4-fluoro-phenyl)-4-oxo-4,5-dihydro-3H-1-thia-3,5,6,8-tetraaza-acenaphthylene-2-carboxylic acid (4-hydroxy-3-methoxy-phenyl)-amide]	43 nM	–
O=C1Nc2c(-c3ccccc3)sc3ncnc(c23)N1c1ccc(F)c(Cl)c1 [Cpd 8, 5-(3-chloro-4-fluoro-phenyl)-2-phenyl-3H,5H-1-thia-3,5,6,8-tetraaza-acenaphthylen-4-one]	542 nM	–
COc1cc(NC(=O)c2sc3ncnc4c3c2NC(=O)N4c2ccc(F)c(Cl)c2)ccc1OCCC1CCNCC1 [Cpd 22, 5-(3-chloro-4-fluoro-phenyl)-4-oxo-4,5-dihydro-3H-1-thia-3,5,6,8-tetraaza-acenaphthylene-2-carboxylic acid [3-methoxy-4-(2-piperidin-4-yl-ethoxy)-phenyl]-amide]	42 nM	–
COc1cc(N2C(=O)Nc3c(C(=O)Nc4ccc(CN5CCCCC5)cc4)sc4ncnc2c34)c(Cl)c(OC)c1OC [Cpd 26, 5-(2-chloro-3,4,5-trimethoxy-phenyl)-4-oxo-4,5-dihydro-3H-1-thia-3,5,6,8-tetraaza-acenaphthylene-2-carboxylic acid (4-piperidin-1-ylmethyl-phenyl)-amide]	9260 nM	–
O=C(Nc1ccc(CNC[C@H]2CCCO2)cc1)c1sc2ncnc3c2c1NC(=O)N3c1ccc(F)c(Cl)c1 [Cpd 17, 5-(3-chloro-4-fluoro-phenyl)-4-oxo-4,5-dihydro-3H-1-thia-3,5,6,8-tetraaza-acenaphthylene-2-carboxylic acid [4-({[(2R)-tetrahydro-furan-2-ylmethyl]-amino}-methyl)-phenyl]-amide]	44 nM	–
O=C(Nc1nccs1)c1sc2ncnc3c2c1NC(=O)N3c1ccc(F)c(Cl)c1 [Cpd 4, 5-(3-chloro-4-fluoro-phenyl)-4-oxo-4,5-dihydro-3H-1-thia-3,5,6,8-tetraaza-acenaphthylene-2-carboxylic acid thiazol-2-ylamide]	72 nM	–
COc1cc(NC(=O)c2sc3ncnc4c3c2NC(=O)N4c2cc(OC)c(OC)c(OC)c2)ccc1OCCN1CCOCC1 [Cpd 27, 4-oxo-5-(3,4,5-trimethoxy-phenyl)-4,5-dihydro-3H-1-thia-3,5,6,8-tetraaza-acenaphthylene-2-carboxylic acid [3-methoxy-4-(2-morpholin-4-yl-ethoxy)-phenyl]-amide]	41500 nM	–
Nc1sc2ncnc3c2c1NC(=O)N3c1ccc(F)c(Cl)c1 [Cpd 157, 2-amino-5-(3-chloro-4-fluoro-phenyl)-3H,5H-1-thia-3,5,6,8-tetraaza-acenaphthylen-4-one]	371 nM	–
COc1cc(NC(=O)c2sc3ncnc4c3c2NC(=O)N4c2ccc(F)c(Cl)c2)ccc1OCCN1CCOCC1 [Cpd 20, 5-(3-chloro-4-fluoro-phenyl)-4-oxo-4,5-dihydro-3H-1-thia-3,5,6,8-tetraaza-acenaphthylene-2-carboxylic acid [3-methoxy-4-(2-morpholin-4-yl-ethoxy)-phenyl]-amide]	30 nM	–
C#Cc1cccc(N2C(=O)Nc3c(C(=O)Nc4ccc(CNC5CCNCC5)cc4)sc4ncnc2c34)c1 [Cpd 24, 5-(3-ethynyl-phenyl)-4-oxo-4,5-dihydro-3H-1-thia-3,5,6,8-tetraaza-acenaphthylene-2-carboxylic acid [4-(piperidin-4-ylaminomethyl)-phenyl]-amide]	126 nM	–
COc1ccc(CC(=O)Nc2sc3ncnc4c3c2NC(=O)N4c2ccc(F)c(Cl)c2)cc1OC [Cpd 158, N-[5-(3-chloro-4-fluoro-phenyl)-4-oxo-4,5-dihydro-3H-1-thia-3,5,6,8-tetraaza-acenaphthylen-2-yl]-2-(3,4-dimethoxy-phenyl)-acetamide]	2430 nM	–
NCc1ccc(NC(=O)c2sc3ncnc4c3c2NC(=O)N4c2ccc(F)c(Cl)c2)cn1 [Cpd 23, 5-(3-chloro-4-fluoro-phenyl)-4-oxo-4,5-dihydro-3H-1-thia-3,5,6,8-tetraaza-acenaphthylene-2-carboxylic acid (6-aminomethyl-pyridin-3-yl)-amide]	27 nM	–
COc1cc(N2C(=O)Nc3c(C(=O)Nc4ccc(CN5CCCCC5)cc4)sc4ncnc2c34)cc(OC)c1OC [Cpd 28, 5-(3,4,5-trimethoxy-phenyl)-4-oxo-4,5-dihydro-3H-1-thia-3,5,6,8-tetraaza-acenaphthylene-2-carboxylic acid (4-piperidin-1-ylmethyl-phenyl)-amide]	–	15%

From patent US7579356B2, “Thia-tetraazaacenaphthylene kinase inhibitors” (Janssen Pharmaceutica NV, priority 2005, dated 2009)
